From PubChem BioAssay (NCI)
Several values for one entry are separate records, joined by “and”; a condition that tells them apart may be missing. Identical values can stand only once.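 All cell lines were grown in 96-well plates and treated with compound for 48 hours. Here, GI50 denotes the concentration required for 50% inhibition of growth. TGI: total growth inhibition.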

Assays:
Experiment in all cases: inhibition of tumour cell growth, NCI panel, 48 h
[1] = system: HOP-92 NSCLC
[2] = system: HCT-15 colon
[3] = system: SF-295 CNS
[4] = system: HL-60(TB) leukemia
[5] = system: SNB-75 CNS
[6] = system: DU-145 prostate
[7] = system: MDA-MB-231 breast
[8] = system: UACC-257 melanoma
[9] = system: NCI/ADR-RES ovarian
[10] = system: T-47D breast

Row | SMILES | GI50 [1] | TGI [1] | GI50 [2] | TGI [2] | GI50 [3] | TGI [3] | GI50 [4] | TGI [4] | GI50 [5] | TGI [5] | GI50 [6] | TGI [6] | GI50 [7] | TGI [7] | GI50 [8] | TGI [8] | GI50 [9] | TGI [9] | GI50 [10] | TGI [10]
1 | Oc1c(CN2CCN(c3ccccc3F)CC2)cc(Br)c2cccnc12 | 0.896 µM | 19.8 µM | 0.143 µM | > 100 µM | 2.92 µM | 42.1 µM | 0.392 µM | 2.34 µM | 1.91 µM | > 100 µM | 1.71 µM | 17.7 µM | 0.902 µM | 15.2 µM | 2.06 µM | 24.1 µM | 0.224 µM | 21.9 µM | 0.565 µM | 60.5 µM
2 | Fc1cccc(-c2[nH]nc3nc(Nc4cccnc4)sc23)c1 | > 100 µM | > 100 µM | 0.948 µM | > 100 µM | 3.82 µM | > 100 µM | 1.24 µM | > 100 µM | > 100 µM | > 100 µM | 4.71 µM | 24.8 µM | 35.2 µM | > 100 µM | > 100 µM | > 100 µM | 1.83 µM | > 100 µM | 8.69 µM | > 100 µM
3 | COc1ccc(C2c3c(-c4ccccc4)nn(-c4ccccc4)c3Oc3ncn4nc(CC#N)nc4c32)cc1OC (configuration not stated) | 17.6 µM and 1.96 µM |  |  | > 100 µM |  | > 100 µM | 30.4 µM and > 100 µM | > 100 µM |  | > 100 µM and 12.2 µM |  | > 100 µM | 9.03 µM and 1.77 µM | 22.8 µM and 4.68 µM |  | > 100 µM and 40.4 µM | 26.2 µM and 3.6 µM | 67.5 µM and > 45.4 µM |  | > 54 µM
4 | Clc1ccc2c(NCCNc3nc(N4CCCC4)nc4ccccc34)ccnc2c1 | 1.23 µM | 2.66 µM | 0.254 µM | 2.92 µM | 1.47 µM | 2.88 µM | 0.704 µM | 1.54 µM | 1.37 µM | 3 µM | 1.17 µM | 2.73 µM | 0.811 µM | 2.24 µM | 1.96 µM | 3.76 µM | 2.78 µM | 11.1 µM | 1.6 µM | 3.99 µM
5 | C=CCSSc1ncnc2c1ncn2C1OC(CO)C(O)C1O (configuration not stated) | 0.222 µM | 4.98 µM | 3.28 µM | > 100 µM | 2.58 µM | > 100 µM | 3.27 µM | 19.9 µM | 0.731 µM | 96.9 µM | 1.24 µM | > 48.1 µM | 3.76 µM | > 100 µM | 6.79 µM | > 86.1 µM | 3.86 µM | > 100 µM | 0.976 µM | > 100 µM
6 | Cc1nc2sc(C(=O)Nc3cccc(Br)c3)c(N)c2cc1C(O)c1ccccc1 (configuration not stated) | 4.27 µM | 32.4 µM | 0.403 µM | 17.3 µM | 0.765 µM | 12.1 µM | 0.395 µM | 1.6 µM | 0.224 µM | 4.15 µM | 0.672 µM | 13.9 µM | 1.85 µM | 16.4 µM | 0.847 µM | 25.2 µM | 0.619 µM | 8.47 µM | 0.665 µM | 31 µM
7 | C/C(=C\c1ccn(-c2ccc(N)cc2F)n1)[C@@H]1C[C@@H]2O[C@]2(C)CCC[C@H](C)[C@H](O)[C@@H](C)C(=O)C(C)(C)[C@@H](O)CC(=O)O1 | 6.51 µM | > 50 µM | 0.0226 µM | > 50 µM | 0.0576 µM | > 50 µM | 0.0174 µM | 0.859 µM | 0.00766 µM | 0.206 µM | 0.024 µM | 0.285 µM | 0.132 µM | > 50 µM | > 50 µM | > 50 µM | 0.0921 µM | 1.19 µM | 0.0605 µM | > 50 µM
8 | COc1cnc2c(c1)C(=O)c1c-2n(CCCNC(C)C)c(=O)c2cc([N+](=O)[O-])ccc12 | 1.09 µM | 2.82 µM | 0.124 µM | 0.402 µM | 0.0309 µM | 0.221 µM | 0.0336 µM | 0.111 µM | 0.0696 µM | 0.48 µM | 0.0502 µM | 0.403 µM | 0.157 µM | 0.438 µM | 0.195 µM | 1.44 µM | 0.0343 µM | 0.267 µM | 0.0393 µM | 1.14 µM
9 | COc1cc2c3c(n(CCCN4CCCC(O)C4)c(=O)c2cc1OC)-c1cc2c(cc1C3=O)OCO2 (configuration not stated) | 0.0312 µM | 0.901 µM | 0.709 µM | 1.7 µM | < 0.005 µM | 2.65 µM | 0.597 µM | 1.32 µM | 0.546 µM | 1.57 µM | < 0.005 µM | 0.592 µM | 0.791 µM | 1.62 µM | 7.74 µM | 15.1 µM | 0.0503 µM | 1.06 µM | 1.16 µM | 3.2 µM
10 | CC[CH2][Sn]([CH2]CC)([O]C(=O)Cc1ccc(F)cc1)[O][Sn]([CH2]CC)([CH2]CC)[O]C(=O)Cc1ccc(F)cc1 | 0.174 µM | 0.522 µM | 0.218 µM | 0.658 µM | 0.587 µM | 1.57 µM | 0.0888 µM |  | 0.27 µM | 1.43 µM | 0.537 µM | 1.8 µM | 0.406 µM | 1.76 µM | 0.204 µM | 0.869 µM | 0.574 µM | 1.93 µM | 0.0296 µM | 0.211 µM
11 | C=C1C(=O)O[C@H]2[C@H]1CC/C(COC(=O)NCc1cc(OC)cc(OC)c1)=C\CC[C@@]1(C)O[C@@H]21 | 1.42 µM | 3.18 µM | 0.77 µM | 2.25 µM | 7.78 µM | 22.3 µM | 1.69 µM | 5.03 µM | 1.99 µM | 12.7 µM | 0.724 µM | 2.03 µM | 1.61 µM | 4.07 µM | 1.54 µM | 3.7 µM | 2.98 µM | 10.2 µM | 1.85 µM | 4.83 µM
12 | CNC(=O)CN1CCC(Oc2cc3c(Nc4cccc(Cl)c4F)ncnc3cc2OC)CC1 | 1.9 µM and 1.29 µM | 16.4 µM and > 9.33 µM | 11.2 µM and > 5.17 µM | 67.6 µM and > 10 µM | 12.5 µM and > 5.62 µM | 29.3 µM and > 10 µM | 26.9 µM and > 4.95 µM | > 65.4 µM | 2.09 µM and 1.84 µM | 10.8 µM and > 10 µM | 3.64 µM and 2.19 µM | > 56 µM | 5.9 µM and 4.18 µM | 20.7 µM and > 10 µM | 13.7 µM and > 10 µM | 29.2 µM and > 10 µM | 11.4 µM and > 6.36 µM | 66.4 µM and > 10 µM | 1.24 µM and 0.53 µM | 18.1 µM and > 7.9 µM
